# Test results reported in ChEMBL document CHEMBL1132910, “SAR of 4-hydroxypiperidine and hydroxyalkyl substituted heterocycles as novel p38 map kinase inhibitors” (Bioorg Med Chem Lett, 2000).
# Experiments:
# [1] = biological target: Mitogen-activated protein kinase 14 (Mus musculus, UniProt P47811); experiment: Inhibition of murine p38 alpha MAP kinase
# [2] = biological target: T1, Prostaglandin G/H synthase 1 (Ovis aries, UniProt P05979); experiment: Inhibition of Prostaglandin G/H synthase 1, COX-1
# T1 sequence (P05979 whole entry): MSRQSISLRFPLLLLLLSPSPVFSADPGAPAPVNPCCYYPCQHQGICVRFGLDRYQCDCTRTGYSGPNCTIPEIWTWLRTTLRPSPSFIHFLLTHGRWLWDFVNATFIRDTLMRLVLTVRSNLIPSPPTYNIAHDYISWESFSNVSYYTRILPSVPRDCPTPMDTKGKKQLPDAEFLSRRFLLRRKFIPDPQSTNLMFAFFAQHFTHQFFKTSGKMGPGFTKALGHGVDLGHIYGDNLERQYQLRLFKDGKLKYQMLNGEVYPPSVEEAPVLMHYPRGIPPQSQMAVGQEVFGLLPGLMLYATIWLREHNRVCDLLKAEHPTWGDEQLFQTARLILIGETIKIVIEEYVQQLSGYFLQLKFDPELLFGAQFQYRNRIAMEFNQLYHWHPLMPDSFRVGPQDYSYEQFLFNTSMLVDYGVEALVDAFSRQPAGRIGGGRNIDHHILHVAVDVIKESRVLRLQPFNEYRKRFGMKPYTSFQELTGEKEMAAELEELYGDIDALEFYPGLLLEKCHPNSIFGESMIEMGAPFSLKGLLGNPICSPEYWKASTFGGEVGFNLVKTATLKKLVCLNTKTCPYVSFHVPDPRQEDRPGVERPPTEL
# [3] = Cmax value at a oral dose of […] mg/kg; type: ADME, organism-based; settings: in vivo, 20 mg/kg
# [4] = Bioavailability; type: ADME, organism-based; settings: eutheria, in vivo
# [5] = biological target: Epidermal growth factor receptor (Homo sapiens, UniProt P00533); experiment: Inhibition of EGFR kinase
# [6] = biological target: Mitogen-activated protein kinase 1 (Mus musculus, UniProt P63085); experiment: Inhibition of ERK2 kinase
# [7] = biological target: Mitogen-activated protein kinase 9 (Homo sapiens, UniProt P45984); experiment: Inhibition of JNK2 kinase
# [8] = biological target: Mitogen-activated protein kinase 8 (Homo sapiens, UniProt P45983); experiment: Inhibition of JNK1 kinase
# [9] = biological target: T2, Dual specificity mitogen-activated protein kinase kinase 6 (Homo sapiens, UniProt P52564); experiment: Inhibition of MKK6b kinase
# T2 sequence (P52564 whole entry): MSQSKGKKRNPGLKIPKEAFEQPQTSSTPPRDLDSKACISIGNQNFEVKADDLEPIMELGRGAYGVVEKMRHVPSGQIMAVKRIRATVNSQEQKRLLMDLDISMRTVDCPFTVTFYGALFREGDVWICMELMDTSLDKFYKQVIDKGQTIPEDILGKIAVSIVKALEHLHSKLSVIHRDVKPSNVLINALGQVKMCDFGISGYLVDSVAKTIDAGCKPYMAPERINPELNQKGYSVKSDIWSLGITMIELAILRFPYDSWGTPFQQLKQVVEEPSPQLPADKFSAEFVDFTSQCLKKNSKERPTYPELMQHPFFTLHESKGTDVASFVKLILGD
# Mus musculus [10] = experiment: (§1) Inhibition of LPS-induced TNF-alpha release in mice at 20 mg/kg; type: functional, organism-based; set-up: dose 20 mg/kg
# Mus musculus [11] = experiment: as §1; type: functional
# [12] = biological target: Protein kinase C alpha type (Bos taurus, UniProt P04409); experiment: Inhibition of PKCalpha kinase
# Rattus norvegicus [13] = experiment: Effect on collagen induced arthritis in rats at 25 mg/kg peroral dose twice daily over 10 days; type: functional; settings: route oral
# Rattus norvegicus [14] = experiment: Effect on adjuvant induced arthritis in rats at 25 mg/kg peroral dose twice daily over 10 days; type: functional; settings: 240 h, route oral
# [15] = biological target: Tyrosine-protein kinase ABL1 (Mus musculus, UniProt P00520); experiment: Inhibition of c-abl kinase
# [16] = biological target: Proto-oncogene tyrosine-protein kinase Src (Gallus gallus, UniProt P00523); experiment: Inhibition of c-src kinase
# [17] = biological target: Mitogen-activated protein kinase 11 (Homo sapiens, UniProt Q15759); experiment: Inhibition of human p38 beta MAP kinase
# [18] = biological target: T3, Mitogen-activated protein kinase 13 (Homo sapiens, UniProt O15264); experiment: Inhibition of human p38 delta MAP kinase
# T3 sequence (O15264 whole entry): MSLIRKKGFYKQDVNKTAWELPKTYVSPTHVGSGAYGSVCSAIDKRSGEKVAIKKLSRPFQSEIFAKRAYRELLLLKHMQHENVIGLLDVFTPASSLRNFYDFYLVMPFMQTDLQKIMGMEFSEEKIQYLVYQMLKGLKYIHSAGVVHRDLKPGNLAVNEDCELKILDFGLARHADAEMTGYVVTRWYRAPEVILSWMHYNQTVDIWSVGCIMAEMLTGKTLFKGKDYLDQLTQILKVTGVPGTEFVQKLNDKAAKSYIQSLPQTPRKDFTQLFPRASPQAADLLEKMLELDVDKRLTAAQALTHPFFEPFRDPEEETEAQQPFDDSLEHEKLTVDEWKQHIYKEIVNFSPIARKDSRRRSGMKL
# Sequence of Mitogen-activated protein kinase 14 (P47811 whole entry): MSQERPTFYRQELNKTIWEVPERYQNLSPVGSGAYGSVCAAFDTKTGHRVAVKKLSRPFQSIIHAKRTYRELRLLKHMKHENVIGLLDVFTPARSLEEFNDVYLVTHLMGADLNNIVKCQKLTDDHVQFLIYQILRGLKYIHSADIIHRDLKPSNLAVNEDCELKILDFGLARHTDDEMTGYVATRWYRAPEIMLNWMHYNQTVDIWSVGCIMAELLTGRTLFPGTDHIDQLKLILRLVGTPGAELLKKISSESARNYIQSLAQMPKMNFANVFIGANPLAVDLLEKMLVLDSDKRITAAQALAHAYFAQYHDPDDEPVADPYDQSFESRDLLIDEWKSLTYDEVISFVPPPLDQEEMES
# Sequence of Epidermal growth factor receptor (P00533 whole entry): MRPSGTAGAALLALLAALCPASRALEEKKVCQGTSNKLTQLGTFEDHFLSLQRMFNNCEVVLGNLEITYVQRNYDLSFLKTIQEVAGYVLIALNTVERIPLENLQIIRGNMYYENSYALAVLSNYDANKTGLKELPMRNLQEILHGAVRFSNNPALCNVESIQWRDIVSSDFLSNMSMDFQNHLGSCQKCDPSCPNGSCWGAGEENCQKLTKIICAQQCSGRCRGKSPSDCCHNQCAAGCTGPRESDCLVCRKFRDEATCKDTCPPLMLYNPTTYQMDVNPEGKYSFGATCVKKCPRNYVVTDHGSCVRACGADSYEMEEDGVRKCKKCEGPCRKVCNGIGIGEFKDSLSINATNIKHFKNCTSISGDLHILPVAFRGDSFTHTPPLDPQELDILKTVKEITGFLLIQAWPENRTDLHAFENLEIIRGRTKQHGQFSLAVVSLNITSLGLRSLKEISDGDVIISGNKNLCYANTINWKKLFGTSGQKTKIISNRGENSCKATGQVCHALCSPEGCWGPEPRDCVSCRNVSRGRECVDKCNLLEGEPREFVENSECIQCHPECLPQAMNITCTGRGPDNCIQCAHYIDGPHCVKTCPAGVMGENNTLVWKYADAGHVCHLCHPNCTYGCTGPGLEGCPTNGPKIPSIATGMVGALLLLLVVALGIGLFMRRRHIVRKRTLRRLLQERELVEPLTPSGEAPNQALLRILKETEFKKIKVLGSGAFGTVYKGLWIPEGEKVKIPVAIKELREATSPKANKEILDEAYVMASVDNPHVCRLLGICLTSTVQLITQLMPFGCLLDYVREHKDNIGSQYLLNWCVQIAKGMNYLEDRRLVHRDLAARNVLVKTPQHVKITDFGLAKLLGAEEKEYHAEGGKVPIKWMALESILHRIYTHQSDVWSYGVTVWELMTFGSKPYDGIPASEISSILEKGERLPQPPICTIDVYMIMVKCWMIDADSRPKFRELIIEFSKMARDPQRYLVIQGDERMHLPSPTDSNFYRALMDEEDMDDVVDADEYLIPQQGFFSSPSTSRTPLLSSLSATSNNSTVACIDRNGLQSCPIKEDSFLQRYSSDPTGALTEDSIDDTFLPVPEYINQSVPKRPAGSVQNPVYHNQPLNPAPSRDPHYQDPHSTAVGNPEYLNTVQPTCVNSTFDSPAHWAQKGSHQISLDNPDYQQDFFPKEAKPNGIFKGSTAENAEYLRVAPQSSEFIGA
# Sequence of Mitogen-activated protein kinase 8 (P45983 whole entry): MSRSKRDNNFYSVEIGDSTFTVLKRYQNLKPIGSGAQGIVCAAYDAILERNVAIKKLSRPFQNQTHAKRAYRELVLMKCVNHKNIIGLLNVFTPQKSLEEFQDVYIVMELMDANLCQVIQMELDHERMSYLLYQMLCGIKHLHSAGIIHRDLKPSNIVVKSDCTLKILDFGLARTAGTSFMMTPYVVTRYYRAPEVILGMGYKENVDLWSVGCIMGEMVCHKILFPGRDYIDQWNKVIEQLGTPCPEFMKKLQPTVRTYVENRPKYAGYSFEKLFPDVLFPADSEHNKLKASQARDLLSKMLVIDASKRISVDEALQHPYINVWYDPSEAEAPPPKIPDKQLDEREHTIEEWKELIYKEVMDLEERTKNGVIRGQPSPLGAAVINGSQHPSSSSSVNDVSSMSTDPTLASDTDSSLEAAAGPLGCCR
# Sequence of Mitogen-activated protein kinase 1 (P63085 whole entry): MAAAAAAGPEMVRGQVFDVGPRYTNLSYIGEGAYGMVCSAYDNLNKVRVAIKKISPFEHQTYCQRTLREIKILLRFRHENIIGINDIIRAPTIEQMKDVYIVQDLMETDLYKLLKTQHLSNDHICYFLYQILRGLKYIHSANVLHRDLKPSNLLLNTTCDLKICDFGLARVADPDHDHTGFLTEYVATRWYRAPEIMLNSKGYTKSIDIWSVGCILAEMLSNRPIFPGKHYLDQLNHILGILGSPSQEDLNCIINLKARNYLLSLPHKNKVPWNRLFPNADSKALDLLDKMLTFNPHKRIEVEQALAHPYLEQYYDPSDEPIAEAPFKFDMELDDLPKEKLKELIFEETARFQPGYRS
# Sequence of Tyrosine-protein kinase ABL1 (P00520 whole entry): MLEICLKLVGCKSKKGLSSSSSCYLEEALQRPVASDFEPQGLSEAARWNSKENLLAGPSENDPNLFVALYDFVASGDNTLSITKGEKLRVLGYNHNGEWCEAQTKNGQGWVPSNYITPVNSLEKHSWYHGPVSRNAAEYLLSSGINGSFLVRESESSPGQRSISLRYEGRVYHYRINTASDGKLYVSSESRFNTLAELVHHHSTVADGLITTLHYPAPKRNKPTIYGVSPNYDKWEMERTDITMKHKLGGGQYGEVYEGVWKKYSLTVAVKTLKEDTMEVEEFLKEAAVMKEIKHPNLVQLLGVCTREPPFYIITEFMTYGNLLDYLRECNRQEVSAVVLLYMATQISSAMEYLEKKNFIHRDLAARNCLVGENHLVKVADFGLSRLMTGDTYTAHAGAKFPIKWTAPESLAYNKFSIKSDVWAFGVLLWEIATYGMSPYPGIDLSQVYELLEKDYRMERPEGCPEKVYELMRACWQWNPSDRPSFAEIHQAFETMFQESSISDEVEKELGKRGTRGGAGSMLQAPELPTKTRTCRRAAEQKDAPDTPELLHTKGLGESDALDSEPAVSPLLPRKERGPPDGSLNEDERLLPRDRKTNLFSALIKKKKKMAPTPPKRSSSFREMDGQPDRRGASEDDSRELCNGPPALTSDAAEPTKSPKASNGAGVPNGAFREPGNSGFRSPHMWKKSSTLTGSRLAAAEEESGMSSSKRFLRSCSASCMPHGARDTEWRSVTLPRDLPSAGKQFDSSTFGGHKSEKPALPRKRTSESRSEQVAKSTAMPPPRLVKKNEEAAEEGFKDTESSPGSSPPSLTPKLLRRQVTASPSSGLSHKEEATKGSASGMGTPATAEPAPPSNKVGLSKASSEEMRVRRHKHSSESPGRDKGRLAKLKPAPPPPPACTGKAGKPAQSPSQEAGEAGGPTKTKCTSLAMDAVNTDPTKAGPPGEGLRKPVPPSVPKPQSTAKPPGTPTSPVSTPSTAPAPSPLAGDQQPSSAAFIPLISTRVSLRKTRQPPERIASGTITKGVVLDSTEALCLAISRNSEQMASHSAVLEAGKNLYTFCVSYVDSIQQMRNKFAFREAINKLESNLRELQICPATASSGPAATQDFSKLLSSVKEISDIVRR
# Sequence of Mitogen-activated protein kinase 11 (Q15759 whole entry): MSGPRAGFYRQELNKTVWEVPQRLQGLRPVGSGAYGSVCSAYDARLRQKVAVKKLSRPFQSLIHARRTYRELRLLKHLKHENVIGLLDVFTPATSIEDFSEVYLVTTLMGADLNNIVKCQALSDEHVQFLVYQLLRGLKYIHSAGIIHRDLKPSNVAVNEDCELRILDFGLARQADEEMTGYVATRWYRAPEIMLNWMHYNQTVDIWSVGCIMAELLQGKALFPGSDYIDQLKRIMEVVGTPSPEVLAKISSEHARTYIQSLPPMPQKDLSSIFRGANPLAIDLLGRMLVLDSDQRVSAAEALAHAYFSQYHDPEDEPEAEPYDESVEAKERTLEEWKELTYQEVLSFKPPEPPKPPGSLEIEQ
# Sequence of Mitogen-activated protein kinase 9 (P45984 whole entry): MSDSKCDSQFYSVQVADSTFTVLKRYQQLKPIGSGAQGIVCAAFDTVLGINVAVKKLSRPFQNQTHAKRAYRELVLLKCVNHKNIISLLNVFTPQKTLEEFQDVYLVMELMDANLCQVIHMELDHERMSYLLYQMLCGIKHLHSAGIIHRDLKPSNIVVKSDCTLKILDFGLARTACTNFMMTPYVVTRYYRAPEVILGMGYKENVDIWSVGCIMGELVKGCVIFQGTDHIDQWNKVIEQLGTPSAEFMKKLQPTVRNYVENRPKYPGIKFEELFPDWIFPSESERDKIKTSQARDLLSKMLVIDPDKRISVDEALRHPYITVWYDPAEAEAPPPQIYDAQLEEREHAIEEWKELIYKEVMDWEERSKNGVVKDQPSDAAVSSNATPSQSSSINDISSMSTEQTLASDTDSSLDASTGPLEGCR
Compound,IC50 [1] [nM],IC50 [2] [nM],IC50 (Mus musculus [10]) [nM],inhibition in vivo at 20 mg/kg (Mus musculus [11]) [%],further results
OC1(c2nc(-c3ccncc3)c(-c3ccc(F)cc3)[nH]2)CCC1,150,20000,,,
CC(C)(O)c1nc(-c2ccncc2)c(-c2ccc(F)cc2)[nH]1,470,87000,,,
CN1CCC(O)(c2nc(-c3ccc(F)cc3)c(-c3ccncc3)o2)CC1,350,> 100000,180,50,Cmax [3]: 1960 nM; bioavailability [4]: 65%; IC50 [5]: 797 nM; IC50 [6]: > 10000 nM; IC50 [7]: 8090 nM; IC50 [8]: > 10000 nM; IC50 [9]: > 100000 nM; IC50 [12]: 51100 nM; ED50 (Rattus norvegicus [13]): 20 mg/kg/day; inhibition in vivo at 25 mg/kg (Rattus norvegicus [14]): 40%; IC50 [15]: 86800 nM; IC50 [16]: 22700 nM; IC50 [17]: 2410 nM; IC50 [18]: > 10000 nM
CC(C)(C)c1nc(-c2ccncc2)c(-c2ccccc2)[nH]1,450,5000,,,
CN1CCC(O)(c2nc(-c3ccncc3)c(-c3ccc(F)cc3)o2)CC1,2000,,,,
CN1CCC(O)(c2nc(-c3ccc(F)cc3)c(-c3ccncc3)s2)CC1,450,73000,145,0,
CN1CCC(O)(c2nc(-c3ccc(F)cc3)c(-c3ccncc3)[nH]2)CC1,90,> 100000,15,77,Cmax [3]: 400 nM; bioavailability [4]: 23%; inhibition in vivo at 25 mg/kg (Rattus norvegicus [14]): 23%

# Continued by falling IC50 [1], values first:
IC50 [1] [nM],IC50 [2] [nM],Compound,IC50 (Mus musculus [10]) [nM],inhibition in vivo at 20 mg/kg (Mus musculus [11]) [%],further results
130,> 100000,CN1CCC(O)(c2cc(-c3ccncc3)c(-c3ccc(F)cc3)[nH]2)CC1,125,18,
120,6300,OC1(c2nc(-c3ccncc3)c(-c3ccc(F)cc3)[nH]2)CCCCC1,,,
80,3000,OC1(c2nc(-c3ccncc3)c(-c3ccc(F)cc3)[nH]2)CCCC1,,,
76,200,OC1(c2nc(-c3ccncc3)c(-c3ccc(F)cc3)[nH]2)CCCCCC1,,,
20,40000,OC1(c2nc(-c3ccncc3)c(-c3ccc(F)cc3)[nH]2)CC1,,,
